Laboratory results reported in US20230391871A1, “MONOAMINE OXIDASE BLOCKADE THERAPY FOR TREATING CANCER THROUGH REGULATING TUMOR ASSOCIATED MACROPHAGES (TAMS)” (THE REGENTS OF THE UNIVERSITY OF CALIFORNIA, priority 2020, published 2023).
Read-outs that look alike come from different tables or passages of the source.

Legend:
[1] = system: wildtype BMDMs (bone marrow-derived macrophages); test: In vitro WT BMDM IL-4/IL-13-induced polarization culture with MAOI treatment; format: cell-based, mouse; details: IL-4/IL-13-stimulated WT BMDMs, 24 h
Method: (§1) (a) Experimental design. Wildtype BMDMs were stimulated with IL-4/IL-13 with or without MAOI treatment. MAOIs (monoamine oxidase inhibitors) studied were phenelzine (Phe: 20 μM), clorgyline (Clo: 20 μM), moclobemide (Moc: 200 μM), and pirlindole (Pir: 20 μM). NT, no MAOI treatment. (b) FACS analyses of ROS levels in BMDMs. (c) FACS analyses of CD206 expression on BMDMs. (d,e) QPCR analyses of Chi313 (d) and Arg1 (e) mRNA expression in BMDMs. f-j, Studying the TAM-related cancer immunotherapy potential of MAOI treatment in a B16-OVA melanoma syngeneic mouse tumour model (n=7-8). (f) Experimental design. B6 wildtype mice were treated with clodronate liposomes (Clod) to serve as TAM-depleted experimental mice, or treated with vehicle liposomes (Veh) to serve as TAM-intact control mice. Phe, phenelzine treatment: NT, no phenelzine treatment. (g) Tumour growth. (h) Tumour volume at day 18. (i) FACS analyses of CD206 expression on TAMs of TAM-intact experimental mice. (j) FACS analyses of intracellular Granzyme B production in tumour-infiltrating CD8^+ T cells of all experimental mice. k-o, Studying the cancer therapy potential of MAOI treatment in combination with anti-PD-1 treatment in the B16-OVA melanoma and MC38 colon cancer syngeneic mouse tumour models (n=5). (k) Experimental design. Tumour-bearing mice were treated with anti-PD-1 antibody (aPD-1) or isotype control (Iso), together with or without phenelzine (Phe) treatment. NT, no Phe treatment. (l) B16-OVA tumour growth. (m) B16-OVA tumour volume at day 18. (n) MC38 tumour growth. (o) MC38 tumour volume at day 27. Representative of 3 experiments. All data are presented as the mean±SEM. ns, not significant, *P<0.05, **P<0.01, and ***P<0.001, by I-way ANOVA (b-e, h, j, m, o) or by Student's t test (i).
To generate BMDMs, BM cells were collected from femurs and tibias of Maoa WT mice and Maoa KO mice, and were cultured in C10 medium containing with 20% of L929-conditional medium in a 10-cm dish (2×10^6 cells per ml: 12 ml per dish) for 6 days. At day 6, the resulting BMDMs were collected and reseeded in a 6-well plate (1×10^6 cells per ml: 2 ml per well) in C10 medium for 24 hours, in the presence or absence of recombinant murine IL-4 (10 ng/ml) (Peprotech, 200-04) and IL-13 (10 ng/ml) (Peprotech, 200-13) to induce BMDM immunosuppressive polarization.
In some experiments, MAOIs were added to the Maoa WT BMDM polarization culture 30 minutes prior to adding recombinant murine IL-4 and IL-13, to block MAO-A activity during BMDM polarization. MAOIs studied were phenelzine (Phe, 20 μM) (Sigma-Aldrich), clorgyline (Clo, 20 μM) (Sigma-Aldrich), moclobemide (Moc, 200 μM) (Sigma-Aldrich), and pirlindole (Pir, 20 μM) (R&D Systems). At 24 hours after IL-4/IL-13 stimulation, BMDMs were collected for analysis.
Cells were stained with surface marker antibodies, washed with PBS, then resuspended in pre-warmed PBS (1×10^6 cells/ml/tube) containing 1 μM CM-H2DCFDA (Thermo Fisher Scientific, C6827). After 15 minutes incubation at room temperature, cells were immediately washed with cold PBS followed by flow cytometry analysis. ROS levels were measured by oxidation of the CM-H2DCFDA probes that can be read out as the fluorescence intensity at the FITC/488 channel of a flow cytometer. Single cell RNA sequencing (scRNAseq) scRNASeq was used to analyze the gene expression profiles of TIIs. B16-OVA tumours were harvested from Maoa WT and Maoa KO mice to prepare TII suspensions (10 tumours were combined for each group). TII suspensions were then sorted using a FACSAria II flow cytometer to purify immune cells (gated as DAPI-CD45.2^+ cells). Sorted TIIs were immediately delivered to the Technology Center for Genomics & Bioinformatics (TCGB) facility at UCLA for library construction and sequencing.

B16-OVA melanoma = B16-OVA melanoma syngeneic mouse tumour model; format: in vivo
Method: as §1
Tumour-bearing mice treated with vehicle liposomes (Veh) were included as a control. The experimental design is shown in main FIG. 5F. FACS quantifications of TAMs (gated as CD45.2^+CD11b^+Ly6G^−Ly6C^−/lowF4/80^+ cells of total TIIs) are presented (n=7-8). b-f, Studying B16-OVA and MC38 tumour growth in B6 wildtype mice with or without phenelzine treatment (Phe or NT). (b) Experimental design. (c) B16-OVA tumour growth (n=10). (d) B16-OVA tumour volume at day 18. (e) MC38 tumour growth (n=6). (f) MC38 tumour volume at day 27. g-k, Studying B16-OVA and MC38 tumour growth in NSG mice with or without phenelzine treatment (Phe or NT: n=5). (g) Experimental design. (h) B16-OVA tumour growth. (i) B16-OVA tumour volume at day 18. (j) MC38 tumour growth. (k) MC38 tumour volume at day 21. Representative of 2 (a-f) and 4 (g-k) experiments.
B16-OVA melanoma cells (1×10^6 per animal) or MC38 colon cancer cells (5×10^5 per animal) were subcutaneously (s.c.) injected into experimental mice to form solid tumours. In some experiments, mice received intraperitoneal (i.p.) injection of phenelzine (30 mg/kg/day) to block MAO-A activity. In some experiments, mice received i.p. injection of clodronate liposomes (200 μl/animal, twice per week) to deplete TAMs: mice received i.p. injection of vehicle liposomes ([…], twice per week) were included as controls. In some experiments, mice received i.p. injection of anti-mouse PD-1 antibodies (300 μg/animal, twice per week) to block PD-1: mice received i.p. injection of isotype antibodies were included as controls. During an experiment, tumour growth was monitored twice per week by measuring tumour size using a Fisherbrand™ Traceable™ digital caliper (Thermo Fisher Scientific): tumour volumes were calculated by formula 1/2×L×W^2.

MC38 colon cancer = system: MC38 colon cancer
Method: as §1, with “Tumour-bearing mice were treated with anti-PD-1 antibody (aPD-1) or isotype control (Iso), together with or without phenelzine (Phe) treatment. NT, no Phe treatment. (l) B16-OVA tumour growth. (m) B16-OVA tumour volume at day 18. (n) MC38 tumour growth. (o) MC38 tumour volume at day 27. Representative of 3 experiments. All data are presented as the mean±SEM. ns, not significant, *P<0.05, **P<0.01, and ***P<0.001, by I-way ANOVA (b-e, h, j, m, o) or by Student's t test (i).” left out
Tumour-bearing mice treated with vehicle liposomes (Veh) were included as a control. […] FACS quantifications of TAMs (gated as CD45.2^+CD11b^+Ly6G^−Ly6C^−/lowF4/80^+ cells of total TIIs) are presented (n=7-8). b-f, Studying B16-OVA and MC38 tumour growth in B6 wildtype mice with or without phenelzine treatment (Phe or NT). […]
B16-OVA melanoma cells (1×10^6 per animal) or MC38 colon cancer cells (5×10^5 per animal) were subcutaneously (s.c.) injected into experimental mice to form solid tumours. […] During an experiment, tumour growth was monitored twice per week by measuring tumour size using a Fisherbrand™ Traceable™ digital caliper (Thermo Fisher Scientific): tumour volumes were calculated by formula 1/2×L×W^2.

[2] = NSG mice, phenelzine vs no treatment

NNCCc1ccccc1 [phenelzine]
ROS levels in BMDMs (FACS) ([1]; MAOI 20 μM added 30 min before cytokines): efficiently reduced
Arg1 mRNA expression in BMDMs (QPCR) ([1]; MAOI 20 μM): decreased expression
CD206 expression on BMDMs (FACS) ([1]; MAOI 20 μM): decreased expression
Chi313 mRNA expression in BMDMs (QPCR) ([1]; MAOI 20 μM): decreased expression
immunosuppressive polarization of BMDMs ([1]; MAOI 20 μM): suppressed
progression of pre-established B16-OVA solid tumours (B16-OVA melanoma; B6 wildtype mice, phenelzine vs no treatment (FIG. 11b-d)): effectively suppressed
growth of B16-OVA tumours in immunodeficient NSG mice (B16-OVA melanoma; [2]): did not suppress
CD206 expression on TAMs (FACS) (B16-OVA melanoma; TAMs from phenelzine-treated TAM-intact B16-OVA tumour-bearing mice): decreased expression
progression of pre-established B16-OVA solid tumours (B16-OVA melanoma; combination study with anti-PD-1 antibody or isotype control (FIG. 5k-m), level comparable to anti-PD-1 alone): significantly suppressed
Granzyme B production in tumour-infiltrating CD8+ T cells (FACS) (B16-OVA melanoma; phenelzine-treated B16-OVA tumour-bearing mice): increased production
B16-OVA tumour growth (B16-OVA melanoma; tumour prevention model, B6 wildtype mice, TAM-intact, phenelzine 30 mg/kg/day i.p.): effectively suppressed
B16-OVA tumour growth in TAM-depleted mice (B16-OVA melanoma; tumour prevention model, B6 wildtype mice, TAMs depleted with clodronate liposomes, phenelzine vs no phenelzine): No tumour growth difference
progression of pre-established MC38 solid tumours (MC38 colon cancer; B6 wildtype mice, phenelzine vs no treatment (FIG. 11e,f)): effectively suppressed
growth of MC38 tumours in immunodeficient NSG mice (MC38 colon cancer; [2]): did not suppress
progression of pre-established MC38 solid tumours (MC38 colon cancer; combination study with anti-PD-1 antibody or isotype control (FIG. 5n,o), level comparable to anti-PD-1 alone): significantly suppressed
